Data published in ChEMBL document CHEMBL1201862, “PubChem BioAssay data set” (2004).
Calls of active or inactive are those of the source.

What was measured:
[1] = test system: Streptococcus sp. 'group A'; test: Streptococcus pyogenes SK(-)GAS viability under kanamycin – luminescence, BacTiterGlo, confirmation, counter-screen for streptokinase expression inhibitor project, dose response (AID 1900); format: functional, organism-based
Streptokinase A = target: T1, Streptokinase A (Streptococcus pyogenes serotype M1, UniProt P10520); test: viability-normalized secreted streptokinase activity reduction – plasminogen activation absorbance, OD405, dose response (AID 1914); format: functional, Streptococcus pyogenes M1 GAS;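 also: secreted streptokinase activity via plasminogen activation per viability signal from cell pellet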
T1 sequence (P10520 whole entry): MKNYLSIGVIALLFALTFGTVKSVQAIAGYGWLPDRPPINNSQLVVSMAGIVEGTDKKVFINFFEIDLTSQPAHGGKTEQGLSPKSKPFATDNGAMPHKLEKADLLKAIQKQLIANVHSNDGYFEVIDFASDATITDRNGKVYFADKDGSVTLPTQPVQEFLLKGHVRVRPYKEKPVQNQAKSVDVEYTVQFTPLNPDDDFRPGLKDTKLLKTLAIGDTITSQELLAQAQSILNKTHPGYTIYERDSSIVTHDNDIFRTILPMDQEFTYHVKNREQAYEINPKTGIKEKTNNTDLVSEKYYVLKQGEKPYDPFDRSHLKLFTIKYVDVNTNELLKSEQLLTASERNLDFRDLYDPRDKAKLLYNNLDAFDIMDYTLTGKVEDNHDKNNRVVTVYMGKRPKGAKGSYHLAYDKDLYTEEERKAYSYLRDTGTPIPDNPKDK

[2] = target: T2, G-protein coupled receptor 55 (Homo sapiens, UniProt Q9Y2T6); test: inhibition of LPI-stimulated GPR55 beta-arrestin translocation – imaging, U2OS, beta-arrestin-GFP, LPI agonist, primary screen (AID 2013); format: functional;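 also: antagonist potency measured as reduced agonist-driven arrestin aggregation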
Streptococcus = test: GAS UMAA2166 growth inhibition – luminescence, BacTiterGlo, counter-screen for streptokinase expression inhibitor project, dose response (AID 1915); format: functional, organism-based;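 also: potency for reduction of bacterial viability or growth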
Cannabinoid receptor 1 [3] = target: T3, Cannabinoid receptor 1 (Homo sapiens, UniProt P21554); test: SAR analysis of antagonists of the Cannabinoid Receptor 1 using an Image-Based Assay - Set 2. [Related pubchem assays (depositor defined):AID2013, AID2026]; format: functional
[4] = target: T4, G-protein coupled receptor 35 (Homo sapiens, UniProt Q9HC97); test: SAR analysis of Agonists of the GPR35 Receptor using an Image-Based Assay - Set 2. [Related pubchem assays (depositor defined):AID2013, AID2026]; format: functional
Cannabinoid receptor 2 [5] = target: T5, Cannabinoid receptor 2 (Homo sapiens, UniProt P34972); test: SAR analysis of antagonists of the Cannabinoid Receptor 2 using an Image-Based Assay. [Related pubchem assays (depositor defined):AID2013, AID2026]; format: functional
Cannabinoid receptor 1 [6] = target: T3, Cannabinoid receptor 1; test: SAR analysis of agonists of the Cannabinoid Receptor 1 using an Image-Based Assay - Set 2. [Related pubchem assays (depositor defined):AID2013, AID2026]; format: functional
[7] = target: T4, G-protein coupled receptor 35; test: SAR analysis of Antagonists of the GPR35 Receptor using an Image-Based Assay - Set 3. [Related pubchem assays (depositor defined):AID2013, AID2026]; format: functional
[8] = target: T2, G-protein coupled receptor 55; test: blockade of LPI-induced GPR55 arrestin translocation – imaging, U2OS, beta-arrestin-GFP, LPI agonist, set 2, SAR follow-up (AID 2820); format: functional
Cannabinoid receptor 2 [9] = target: T5, Cannabinoid receptor 2; test: SAR analysis of agonists of the Cannabinoid Receptor 2 using an Image-Based Assay. [Related pubchem assays (depositor defined):AID2013, AID2026]; format: functional
[10] = target: T6, Tyrosine-protein phosphatase non-receptor type 22 (Homo sapiens, UniProt Q9Y2R2); test: SAR LYP1 Fluorescent Assay using pCAP substrate for In Vitro dose response studies - Set 2. [Related pubchem assays (depositor defined):AID1779, AID1784, AID2135, AID449727]; format: functional
T6 sequence (Q9Y2R2 whole entry): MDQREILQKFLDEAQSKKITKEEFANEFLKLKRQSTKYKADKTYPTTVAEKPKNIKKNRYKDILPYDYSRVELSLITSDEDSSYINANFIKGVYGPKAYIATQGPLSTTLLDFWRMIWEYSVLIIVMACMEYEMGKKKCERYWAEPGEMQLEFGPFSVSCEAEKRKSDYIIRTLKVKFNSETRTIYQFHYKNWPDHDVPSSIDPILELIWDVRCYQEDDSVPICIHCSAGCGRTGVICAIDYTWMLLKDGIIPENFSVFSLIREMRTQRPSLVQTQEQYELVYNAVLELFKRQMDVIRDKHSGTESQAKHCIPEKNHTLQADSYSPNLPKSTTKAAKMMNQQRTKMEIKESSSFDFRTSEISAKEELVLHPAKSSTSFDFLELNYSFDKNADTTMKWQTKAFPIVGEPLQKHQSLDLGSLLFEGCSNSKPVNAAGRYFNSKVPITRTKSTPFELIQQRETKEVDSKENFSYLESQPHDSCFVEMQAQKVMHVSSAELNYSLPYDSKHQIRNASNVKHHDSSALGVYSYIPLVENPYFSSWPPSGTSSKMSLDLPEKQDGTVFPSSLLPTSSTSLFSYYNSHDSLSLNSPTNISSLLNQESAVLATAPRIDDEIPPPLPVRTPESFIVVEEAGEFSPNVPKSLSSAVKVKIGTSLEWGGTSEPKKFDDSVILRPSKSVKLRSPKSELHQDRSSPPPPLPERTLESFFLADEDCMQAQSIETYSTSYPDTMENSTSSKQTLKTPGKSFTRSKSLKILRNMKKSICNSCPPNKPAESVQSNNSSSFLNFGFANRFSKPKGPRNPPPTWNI

[11] = target: Tyrosine-protein phosphatase non-receptor type 12 (Homo sapiens, UniProt Q05209); test: SAR Selectivity Analysis of small molecule inhibitors of PEST using pCAP in a fluorescence assay. [Related pubchem assays (depositor defined):AID1779, AID1784, AID2135]; format: functional
[12] = target: T6, Tyrosine-protein phosphatase non-receptor type 22; test: SAR LYP1 Fluorescent Assay using OMFP substrate for In Vitro dose response studies - Set 3. [Related pubchem assays (depositor defined):AID1779, AID1784, AID2140, AID2686]; format: functional
[13] = target: T7, Tyrosine-protein phosphatase non-receptor type 7 (Homo sapiens, UniProt P35236); test: inhibition of hematopoietic tyrosine phosphatase HePTP – biochemical, set 2, SAR follow-up (AID 449736); format: functional
T7 sequence (P35236 whole entry): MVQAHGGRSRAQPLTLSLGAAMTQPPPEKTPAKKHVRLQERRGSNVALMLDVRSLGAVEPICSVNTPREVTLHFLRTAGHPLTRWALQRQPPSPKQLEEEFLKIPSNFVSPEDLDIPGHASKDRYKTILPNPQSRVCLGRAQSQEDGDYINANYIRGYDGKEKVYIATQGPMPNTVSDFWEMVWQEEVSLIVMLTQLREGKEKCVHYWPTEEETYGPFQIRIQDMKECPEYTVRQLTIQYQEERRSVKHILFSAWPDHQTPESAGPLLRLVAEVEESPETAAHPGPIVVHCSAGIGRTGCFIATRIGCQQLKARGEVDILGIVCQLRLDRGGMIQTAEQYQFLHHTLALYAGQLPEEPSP

[14] = target: T6, Tyrosine-protein phosphatase non-receptor type 22; test: inhibition of lymphoid tyrosine phosphatase LYP – biochemical, pCAP fluorogenic substrate, fluorescence, set 3, SAR follow-up (AID 449727); format: functional
[15] = target: T6, Tyrosine-protein phosphatase non-receptor type 22; test: PubChem AID 2135
[16] = target: T6, Tyrosine-protein phosphatase non-receptor type 22; test: SAR LYP1 Fluorescent Assay using OMFP substrate for In Vitro dose response studies - Set 2. [Related pubchem assays (depositor defined):AID1779, AID1784, AID2140, AID449726, AID488869]; format: functional

T4 sequence (Q9HC97 whole entry): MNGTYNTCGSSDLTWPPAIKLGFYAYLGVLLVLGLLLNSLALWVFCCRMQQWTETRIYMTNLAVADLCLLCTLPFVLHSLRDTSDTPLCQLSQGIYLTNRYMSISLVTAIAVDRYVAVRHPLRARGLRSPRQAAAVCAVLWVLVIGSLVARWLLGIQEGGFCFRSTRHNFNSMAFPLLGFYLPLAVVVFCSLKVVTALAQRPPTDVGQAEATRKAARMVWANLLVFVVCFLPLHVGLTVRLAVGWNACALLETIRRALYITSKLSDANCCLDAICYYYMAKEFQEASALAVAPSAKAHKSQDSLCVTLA
T5 sequence (P34972 whole entry): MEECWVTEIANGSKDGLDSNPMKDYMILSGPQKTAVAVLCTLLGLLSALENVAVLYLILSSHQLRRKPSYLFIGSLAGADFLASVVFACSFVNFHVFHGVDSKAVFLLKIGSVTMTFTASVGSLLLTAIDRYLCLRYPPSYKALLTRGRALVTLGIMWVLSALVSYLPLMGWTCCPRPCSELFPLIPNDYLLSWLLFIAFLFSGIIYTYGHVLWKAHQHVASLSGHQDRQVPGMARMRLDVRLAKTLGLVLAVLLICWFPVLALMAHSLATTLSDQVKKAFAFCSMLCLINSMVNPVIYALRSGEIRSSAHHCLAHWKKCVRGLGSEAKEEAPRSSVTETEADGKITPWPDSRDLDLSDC
T2 sequence (Q9Y2T6 whole entry): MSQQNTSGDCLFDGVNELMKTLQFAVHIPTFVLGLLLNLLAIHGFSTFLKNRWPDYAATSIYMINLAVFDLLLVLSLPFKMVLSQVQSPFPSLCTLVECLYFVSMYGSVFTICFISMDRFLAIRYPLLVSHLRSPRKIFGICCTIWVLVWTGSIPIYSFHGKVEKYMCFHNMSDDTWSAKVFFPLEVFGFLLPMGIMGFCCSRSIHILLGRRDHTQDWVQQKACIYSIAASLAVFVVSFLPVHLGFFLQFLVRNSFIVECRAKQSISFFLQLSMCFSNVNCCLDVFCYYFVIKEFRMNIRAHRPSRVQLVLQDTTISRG
T3 sequence (P21554 whole entry): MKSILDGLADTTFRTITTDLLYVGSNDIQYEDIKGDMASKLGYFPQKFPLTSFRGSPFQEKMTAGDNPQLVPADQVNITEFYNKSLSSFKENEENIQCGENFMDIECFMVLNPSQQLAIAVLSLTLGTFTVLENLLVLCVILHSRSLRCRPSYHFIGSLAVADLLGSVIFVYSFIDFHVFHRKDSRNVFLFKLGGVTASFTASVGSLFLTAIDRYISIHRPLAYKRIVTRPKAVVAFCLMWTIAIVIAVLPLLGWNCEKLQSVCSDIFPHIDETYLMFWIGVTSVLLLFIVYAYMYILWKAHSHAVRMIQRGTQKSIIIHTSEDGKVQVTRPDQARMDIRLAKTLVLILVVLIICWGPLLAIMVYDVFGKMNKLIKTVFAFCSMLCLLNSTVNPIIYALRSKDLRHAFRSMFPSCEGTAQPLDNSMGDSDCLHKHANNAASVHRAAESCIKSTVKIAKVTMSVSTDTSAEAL
Chain of Tyrosine-protein phosphatase non-receptor type 12 (Q05209 whole entry): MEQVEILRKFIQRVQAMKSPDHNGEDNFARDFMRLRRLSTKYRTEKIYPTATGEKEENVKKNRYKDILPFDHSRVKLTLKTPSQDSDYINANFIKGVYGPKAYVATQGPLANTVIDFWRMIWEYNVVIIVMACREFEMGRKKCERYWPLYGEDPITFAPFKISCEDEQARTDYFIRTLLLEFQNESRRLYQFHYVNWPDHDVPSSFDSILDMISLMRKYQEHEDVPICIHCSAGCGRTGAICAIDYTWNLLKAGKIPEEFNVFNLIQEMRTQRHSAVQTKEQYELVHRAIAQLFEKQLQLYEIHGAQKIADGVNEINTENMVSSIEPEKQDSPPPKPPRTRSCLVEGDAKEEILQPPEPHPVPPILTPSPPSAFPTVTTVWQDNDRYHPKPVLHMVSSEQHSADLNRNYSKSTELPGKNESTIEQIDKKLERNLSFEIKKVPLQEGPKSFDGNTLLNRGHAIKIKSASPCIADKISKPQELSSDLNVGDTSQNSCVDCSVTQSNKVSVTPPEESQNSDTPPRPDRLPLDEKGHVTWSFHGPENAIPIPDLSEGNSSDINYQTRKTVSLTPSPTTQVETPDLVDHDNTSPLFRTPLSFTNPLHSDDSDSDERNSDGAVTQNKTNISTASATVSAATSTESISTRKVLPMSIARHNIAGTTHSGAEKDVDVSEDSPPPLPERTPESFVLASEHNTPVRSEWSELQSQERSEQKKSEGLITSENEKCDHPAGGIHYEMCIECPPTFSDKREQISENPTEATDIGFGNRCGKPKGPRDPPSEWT

SMILES | EC50 [1] | EC50 (Streptokinase A) | IC50 [2] | EC50 (Streptococcus) | IC50 (Cannabinoid receptor 1 [3]) | EC50 [4] | IC50 (Cannabinoid receptor 2 [5]) | EC50 (Cannabinoid receptor 1 [6]) | IC50 [7] | IC50 [8] | EC50 (Cannabinoid receptor 2 [9]) | IC50 [10] | IC50 [11] | IC50 [12] | IC50 [13] | IC50 [14] | IC50 [15] | IC50 [16]
Cc1ccc(-n2cc3c(-c4cccc(Br)c4)nnc(C)c3n2)cc1 | 7.37 µM (active) | 94.1 µM (active) | 2.21 µM (active) | 46.9 µM (active) | 2.94 µM (active) | > 32 µM (inactive) | 23.8 µM (inactive) | > 32 µM (inactive) | > 32 µM (inactive) | 1.24 µM (active) | > 32 µM (inactive) |  |  |  |  |  |  | 
N#C/C(=C/c1ccc(OCc2ccc(F)cc2)c(Br)c1)c1ccc(C(=O)O)cc1 |  |  |  |  |  |  |  |  |  |  |  | 10.8 µM (active) | 7.56 µM (active) | 37 µM (active) | 1.36 µM (active) | 15.8 µM (active) | 4.37 µM (active) | 13.7 µM (active)
